Assay results published in paper PMC7957578, “N-(1,3,4-Oxadiazol-2-yl)Benzamides as Antibacterial Agents against Neisseria gonorrhoeae” (International Journal of Molecular Sciences, 2021).
≈ marks a conversion by molar mass, not a printed value. Where two headings read alike, the source gives them in different places.

How the values were obtained:
[1] = test system: N. gonorrhoeae strain 181; experiment: MIC by broth microdilution against N. gonorrhoeae strain 181; type: cell-based, Neisseria gonorrhoeae; conditions: Neisseria gonorrhoeae; N. gonorrhoeae strain 181; read-out: MIC
Description: (§1) Briefly, bacteria were grown overnight on chocolate agar II at 37° C in the presence of 5% CO2. Afterwards, a bacterial suspension equivalent to 1.0 McFarland standard was prepared and diluted in brucella broth supplemented with yeast extract, neopeptone, hematin, pyridoxal, and NAD. Test agents were added in the first row of the 96-well plates and serially diluted along the plates. Plates were then incubated at 37° C in the presence of 5% CO2 for 24 h. […] Plates were then incubated at 37 ° C in the presence of 5% CO2 for 24 h. The MBC was categorized as the lowest concentration that reduced bacterial growth by 99.9% [45, 46, 47].

N. gonorrhoeae 165 = experiment: MIC/MBC against N. gonorrhoeae clinical isolate 165; type: cell-based; conditions: Neisseria gonorrhoeae
Description: as §1

N. gonorrhoeae 166 = experiment: MIC/MBC against N. gonorrhoeae clinical isolate 166; type: cell-based; conditions: Neisseria gonorrhoeae
Description: as §1

N. gonorrhoeae 194 = experiment: MIC/MBC against N. gonorrhoeae clinical isolate 194; type: cell-based; conditions: Neisseria gonorrhoeae
Description: as §1

N. gonorrhoeae 197 = experiment: MIC/MBC against N. gonorrhoeae clinical isolate 197; type: cell-based; conditions: Neisseria gonorrhoeae
Description: as §1

N. gonorrhoeae 200 = experiment: MIC/MBC against N. gonorrhoeae clinical isolate 200; type: cell-based; conditions: Neisseria gonorrhoeae
Description: as §1

N. gonorrhoeae WHO L = experiment: MIC/MBC against N. gonorrhoeae WHO L reference strain; type: cell-based; conditions: Neisseria gonorrhoeae
Description: as §1

[2] = test system: panel drug-resistant pathogenic N. gonorrhoeae strains; experiment: MIC/MBC against a panel of drug-resistant N. gonorrhoeae strains; type: cell-based, Neisseria gonorrhoeae; conditions: MBC the same as or one-fold higher than MIC
S. aureus ATCC 25923 = experiment: MIC/MBC (CLSI broth microdilution) against S. aureus ATCC 25923; type: cell-based; conditions: Staphylococcus aureus, ATCC25923, S. aureus ATCC 25923
Description: (§2) The minimum inhibitory concentrations (MICs) of the tested compounds and control drugs, linezolid, vancomycin, and gentamicin, were determined using the broth microdilution method according to the guidelines outlined by the Clinical and Laboratory Standards Institute (CLSI) against clinically relevant bacterial (Staphylococcus aureus, MRSA, Escherichia coli, Enterococcus faecalis and Enterococcus faecium strains. S. aureus, MRSA, E. coli, Enterococcus faecalis and Enterococcus faecium were grown aerobically overnight on tryptone soy agar (TSA) plates at 37° C. Afterwards, a bacterial solution equivalent to 0.5 McFarland standard was prepared and diluted in cation-adjusted Mueller–Hinton broth (CAMHB) (for S. aureus, MRSA, and E. coli) to achieve a bacterial concentration of about 5 × 10^5 CFU/mL. Enterococcus faecalis and Enterococcus faecium 0.5 McFarland standard solution was diluted in tryptone soy broth (TSB) to achieve a bacterial concentration of about 5 × 10^5 CFU/mL. Compounds and control drugs were added in the first row of 96-well plates and serially diluted with the corresponding media containing bacteria. Plates were then incubated as previously described. […] The minimum bactericidal concentration (MBC) was tested by spotting 4 µL from wells with no growth onto TSA plates. Plates were incubated at 37 ° C for at least 18 h before recording the MBC. The MBC was categorized as the lowest concentration that reduced bacterial growth by 99.9% [45, 46, 47].

MRSA USA300 = experiment: MIC/MBC (CLSI broth microdilution) against MRSA USA300; type: cell-based, methicillin-resistant Staphylococcus aureus; conditions: Staphylococcus aureus, MRSA USA300
Description: as §2

E. faecalis ATCC 29212 = experiment: MIC/MBC (CLSI broth microdilution) against E. faecalis ATCC 29212; type: cell-based; conditions: Enterococcus faecalis, ATCC29212, E. faecalis ATCC 29212
Description: as §2

VRE. faecalisATCC 51575 = experiment: MIC/MBC (CLSI broth microdilution) against VRE faecalis ATCC 51575; type: cell-based; conditions: Enterococcus, VRE faecalis ATCC 51575
Description: as §2

VRE. faecalis ATCC 51299 = experiment: MIC/MBC (CLSI broth microdilution) against VRE faecalis ATCC 51299; type: cell-based; conditions: Enterococcus, VRE faecalis ATCC 51299
Description: as §2

VRE. faecium ATCC 700221 = experiment: MIC/MBC (CLSI broth microdilution) against VRE faecium ATCC 700221; type: cell-based; conditions: Enterococcus, VRE faecium ATCC 700221
Description: as §2

[3] = test system: L. monocytogenes ATCC 19115; experiment: MIC/MBC (CLSI broth microdilution) against L. monocytogenes ATCC 19115; type: cell-based; conditions: Listeria monocytogenes, ATCC19115, L. monocytogenes ATCC 19115
[4] = test system: E. coli BW25113 (wild-type strain); experiment: MIC/MBC (CLSI broth microdilution) against E. coli BW25113 wild type; type: cell-based, Escherichia coli; conditions: E. coli BW25113 wild-type strain
Description: as §2

[5] = test system: E. coli JW55031 (TolC Mutant); experiment: MIC/MBC (CLSI broth microdilution) against E. coli TolC mutant; type: cell-based; conditions: Escherichia coli
Description: as §2

[6] = test system: human colorectal cells (Caco-2); experiment: In vitro cytotoxicity, MTS assay; type: cell-based
Description: HSGN-237 and -238 were assayed for potential cytotoxicity against a human colorectal adenocarcinoma (Caco-2) cell line, as described previously. Briefly, tested compounds were incubated with caco-2 cells for 24 and 48 h. Then, the cells were incubated with MTS (3-(4,5-dimethylthiazol-2-yl)-5-(3-carboxymethoxyphenyl)-2-(4-sulfophenyl)-2H-tetrazolium) reagent for 4 h before measuring the absorbance values (OD490).
Figure 2 In vitro cytotoxicity assessment of HSGN-237 and -238 (tested in triplicate) against human colorectal cells (Caco-2) after (A) 24 h, and (B) 48 h, using the 3-(4,5-dimethylthiazol-2-yl)-5-(3-carboxymethoxyphenyl)-2-(4-sulfophenyl)-2H-tetrazolium (MTS) assay. Results are presented as percent viable cells relative to DMSO (negative control). Error bars represent standard deviation values. A two-way ANOVA, with post hoc Dunnet’s multiple comparisons test, determined the statistical difference between the values obtained for the compound and DMSO. Asterisks denote statistically significant differences between treatments of cells with either HSGN-237 or -238 as compared to DMSO-treated cells. The experiment was repeated 3 independent times.

SMILES: O=C(Nc1nnc(-c2ccc(Cl)s2)o1)c1ccc(OC(F)(F)F)cc1 [HSGN-238, N-(5-(5-Chlorothiophen-2-yl)-1,3,4-oxadiazol-2-yl)-4-(trifluoromethoxy)benzamide]
- MIC [1]: 0.125 µg/mL (≈ 0.321 µM)
- MBC (N. gonorrhoeae 165): 0.25 µg/mL (≈ 0.641 µM)
- MIC (N. gonorrhoeae 165): 0.125 µg/mL (≈ 0.321 µM)
- MBC (N. gonorrhoeae 166): 0.25 µg/mL (≈ 0.641 µM)
- MIC (N. gonorrhoeae 166): 0.125 µg/mL (≈ 0.321 µM)
- MBC (N. gonorrhoeae 194): 0.125 µg/mL (≈ 0.321 µM)
- MIC (N. gonorrhoeae 194): 0.125 µg/mL (≈ 0.321 µM)
- MBC (N. gonorrhoeae 197): 0.125 µg/mL (≈ 0.321 µM)
- MIC (N. gonorrhoeae 197): 0.125 µg/mL (≈ 0.321 µM)
- MBC (N. gonorrhoeae 200): 0.125 µg/mL (≈ 0.321 µM)
- MIC (N. gonorrhoeae 200): 0.125 µg/mL (≈ 0.321 µM)
- MBC (N. gonorrhoeae WHO L): 0.125 µg/mL (≈ 0.321 µM)
- MIC (N. gonorrhoeae WHO L): 0.06 µg/mL (≈ 0.154 µM)
- type of activity from MBC versus MIC [2]: bactericidal activity
- MBC (S. aureus ATCC 25923; read-out: MBC): > 64 µg/mL
- MIC (S. aureus ATCC 25923; read-out: MIC): 0.25 µg/mL (≈ 0.641 µM)
- MBC (MRSA USA300; read-out: MBC): 16 µg/mL (≈ 41.1 µM)
- MIC (MRSA USA300; read-out: MIC): 0.25 µg/mL (≈ 0.641 µM)
- MBC (E. faecalis ATCC 29212; read-out: MBC): 32 µg/mL (≈ 82.1 µM)
- MIC (E. faecalis ATCC 29212; read-out: MIC): 1 µg/mL (≈ 2.57 µM)
- MBC (VRE. faecalisATCC 51575; read-out: MBC): 32 µg/mL (≈ 82.1 µM)
- MIC (VRE. faecalisATCC 51575; read-out: MIC): 1 µg/mL (≈ 2.57 µM)
- MBC (VRE. faecalis ATCC 51299; read-out: MBC): 8 µg/mL (≈ 20.5 µM)
- MIC (VRE. faecalis ATCC 51299; read-out: MIC): 0.25 µg/mL (≈ 0.641 µM)
- MBC (VRE. faecium ATCC 700221; read-out: MBC): 8 µg/mL (≈ 20.5 µM)
- MIC (VRE. faecium ATCC 700221; read-out: MIC): 0.25 µg/mL (≈ 0.641 µM)
- MBC ([3]; read-out: MBC): 32 µg/mL (≈ 82.1 µM)
- MIC ([3]; read-out: MIC): 0.5 µg/mL (≈ 1.28 µM)
- MIC [4]: >8 µg/mL
- MBC ([4]; Escherichia coli, read-out: MBC): > 8 µg/mL
- MIC ([4]; Escherichia coli, read-out: MIC): > 8 µg/mL
- MBC [5]: 32 µg/mL (≈ 82.1 µM)
- MIC [5]: 0.06 µg/mL (≈ 0.154 µM)
- non-toxic concentration ([6]; Caco-2 cells, 24 and 48 h, MTS assay): up to 16 µg/mL
- non-toxic concentration relative to MIC against N. gonorrhoeae ([6]; Caco-2 non-toxic concentration versus corresponding MIC): 128 times
